What was measured:
Assay in all cases: relative viability (nuclei count vs DMSO), 5 days (fraction); higher = more cells survive
Midostaurin + Trametinib = compound: CO[C@@H]1[C@H](N(C)C(=O)c2ccccc2)C[C@H]2O[C@]1(C)n1c3ccccc3c3c4c(c5c6ccccc6n2c5c31)C(=O)NC4 [Midostaurin] + CC(=O)Nc1cccc(-n2c(=O)n(C3CC3)c(=O)c3c(Nc4ccc(I)cc4F)n(C)c(=O)c(C)c32)c1 [Trametinib] (partner 0.02 µM)
Summary of the method: (§1)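 Values are medians from duplicate plates. Each reflects relative viability, defined as the nuclei count of treated wells over that of vehicle wells. Lung cancer cell lines in 1536-well plates were pin-tool dosed one day after seeding with one drug alone or with a fixed anchor-drug dose plus five library-drug doses (not always all listed) in √10 steps, then fixed, stained and imaged at 4× after 5 days.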

Midostaurin + Lapatinib = compound: CO[C@@H]1[C@H](N(C)C(=O)c2ccccc2)C[C@H]2O[C@]1(C)n1c3ccccc3c3c4c(c5c6ccccc6n2c5c31)C(=O)NC4 [Midostaurin] + CS(=O)(=O)CCNCc1ccc(-c2ccc3ncnc(Nc4ccc(OCc5cccc(F)c5)c(Cl)c4)c3c2)o1 [Lapatinib] (partner 2 µM)
Summary of the method: as §1

Midostaurin + Pictilisib = compound: CO[C@@H]1[C@H](N(C)C(=O)c2ccccc2)C[C@H]2O[C@]1(C)n1c3ccccc3c3c4c(c5c6ccccc6n2c5c31)C(=O)NC4 [Midostaurin] + CS(=O)(=O)N1CCN(Cc2cc3nc(-c4cccc5[nH]ncc45)nc(N4CCOCC4)c3s2)CC1 [Pictilisib] (partner 1 µM)
Summary of the method: as §1

[1] = compound: COc1cc(-c2nn([C@H]3CC[C@H](N4CCN(C(C)=O)CC4)CC3)c3ncnc(N)c23)ccc1NC(=O)c1cc2ccccc2n1C + N=C(N)NC(=N)NCCc1ccccc1 [Phenformin] (partner 250 µM)
Summary of the method: as §1

Midostaurin + AZD7762 = compound: CO[C@@H]1[C@H](N(C)C(=O)c2ccccc2)C[C@H]2O[C@]1(C)n1c3ccccc3c3c4c(c5c6ccccc6n2c5c31)C(=O)NC4 [Midostaurin] + NC(=O)Nc1cc(-c2cccc(F)c2)sc1C(=O)N[C@H]1CCCNC1 [AZD7762] (partner 0.2 µM)
Summary of the method: as §1

| Cell Line | relative viability (Midostaurin + Trametinib; first compound 0.01 µM) | relative viability (Midostaurin + Trametinib; first compound 0.03162 µM) | relative viability (Midostaurin + Trametinib; first compound 0.1 µM) | relative viability (Midostaurin + Trametinib; first compound 0.3162 µM) | relative viability (Midostaurin + Lapatinib; first compound 0.01 µM) | relative viability (Midostaurin + Lapatinib; first compound 0.03162 µM) | relative viability (Midostaurin + Lapatinib; first compound 0.1 µM) | relative viability (Midostaurin + Lapatinib; first compound 0.3162 µM) | relative viability (Midostaurin + Pictilisib; first compound 0.01 µM) | relative viability (Midostaurin + Pictilisib; first compound 0.03162 µM) | relative viability (Midostaurin + Pictilisib; first compound 0.1 µM) | relative viability (Midostaurin + Pictilisib; first compound 0.3162 µM) | relative viability ([1]; first compound 0.0128 µM) | relative viability ([1]; first compound 0.04048 µM) | relative viability ([1]; first compound 0.128 µM) | relative viability ([1]; first compound 1.28 µM) | relative viability (Midostaurin + AZD7762; first compound 0.01 µM) | relative viability (Midostaurin + AZD7762; first compound 0.03162 µM) | relative viability (Midostaurin + AZD7762; first compound 0.1 µM) | relative viability (Midostaurin + AZD7762; first compound 0.3162 µM) |
| --- | --- | --- | --- | --- | --- | --- | --- | --- | --- | --- | --- | --- | --- | --- | --- | --- | --- | --- | --- | --- |
| NCI-H2023 | 0.499 | 0.618 | 0.375 | 0.276 | 0.851 | 0.621 | 0.777 | 0.555 | 0.235 | 0.249 | 0.208 | 0.186 | 0.404 | 0.426 | 0.355 | 0.323 | – | – | – | – |
| COR-L 105 | 0.483 | 0.445 | 0.433 | 0.477 | 0.364 | 0.395 | 0.357 | 0.344 | 0.36 | 0.453 | 0.337 | 0.34 | 0.474 | 0.58 | 0.4 | 0.232 | – | – | – | – |
| NCI-H520 | 0.768 | 0.717 | 0.714 | 0.583 | 0.866 | 0.942 | 0.762 | 0.781 | 0.257 | 0.239 | 0.3 | 0.362 | 0.45 | 0.521 | 0.566 | 0.425 | – | – | – | – |
| SK-LU-1 | 0.511 | 0.517 | 0.521 | 0.509 | 0.806 | 1.17 | 0.823 | 0.572 | 0.602 | 0.676 | 0.56 | 0.572 | 0.588 | 0.425 | 0.48 | 0.338 | – | – | – | – |
| ChaGo-K-1 | 0.949 | 0.963 | 0.806 | 0.915 | – | – | – | – | 0.688 | 1.24 | 0.712 | 1.1 | 0.472 | 0.491 | 0.417 | 0.431 | 0.895 | 0.837 | 0.677 | 0.946 |
| NCI-H2342 | 0.895 | 0.735 | 0.89 | 0.778 | – | – | – | – | – | – | – | – | 0.529 | 0.584 | 0.637 | 0.628 | 0.558 | 0.503 | 0.489 | 0.451 |
| NCI-H1299 | – | – | – | – | 0.959 | 0.93 | 0.871 | 0.883 | 0.838 | 0.73 | 0.527 | 0.273 | – | – | – | – | – | – | – | – |
| NCI-H1650 | 0.64 | 0.587 | 0.594 | 0.694 | 0.757 | 0.791 | 0.878 | 0.581 | 0.616 | 0.592 | 0.657 | 0.569 | 0.41 | 0.57 | 0.435 | 0.479 | – | – | – | – |
| NCI-H2009 | 0.263 | 0.262 | 0.292 | 0.319 | 0.811 | 0.823 | 0.902 | 0.861 | 0.891 | 0.833 | 0.752 | 0.555 | 0.517 | 0.433 | 0.511 | 0.515 | – | – | – | – |
| SW 900 | 0.759 | 0.919 | 0.743 | 0.962 | – | – | – | – | – | – | – | – | 0.639 | 0.66 | 0.494 | 0.448 | 0.755 | 0.684 | 0.617 | 0.476 |
| SK-MES-1 | 0.57 | 0.565 | 0.526 | 0.493 | 0.455 | 0.439 | 0.395 | 0.491 | 0.412 | 0.332 | 0.431 | 0.368 | 0.785 | 0.708 | 0.587 | 0.631 | – | – | – | – |
| NCI-H1648 | 0.532 | – | – | 0.432 | – | – | – | – | – | – | – | – | – | – | – | – | 0.766 | – | – | 0.656 |
| NCI-H522 | 0.719 | 0.825 | 0.752 | 0.839 | – | – | – | – | – | – | – | – | 0.598 | 0.625 | 0.641 | 0.541 | 0.86 | 0.833 | 0.864 | 0.91 |
| A549 | – | – | – | – | 0.954 | 0.854 | 1 | 0.212 | 0.549 | 0.446 | 0.483 | 0.224 | 0.178 | 0.203 | 0.151 | 0.185 | – | – | – | – |
| NCI-H661 | 0.597 | 0.617 | 0.61 | 0.534 | 0.389 | 0.449 | 0.411 | 0.384 | 0.397 | 0.386 | 0.33 | 0.438 | 0.271 | 0.273 | 0.256 | 0.261 | – | – | – | – |
| NCI-H1563 | – | – | – | – | 0.929 | 0.97 | 0.77 | 0.924 | 0.605 | 0.722 | 0.599 | 0.692 | 0.608 | 0.635 | 0.662 | 0.617 | – | – | – | – |
| ABC-1 | – | – | – | – | 1.05 | 1.29 | 1 | 1.17 | 0.795 | 0.639 | 0.654 | 0.775 | 0.231 | 0.245 | 0.225 | 0.243 | 0.844 | 0.824 | 0.729 | – |
| LCLC-103H | 0.723 | 0.686 | 0.717 | 0.681 | – | – | – | – | 0.72 | 0.541 | 0.6 | 0.648 | 0.397 | 0.327 | 0.342 | 0.358 | 0.789 | 0.782 | 0.682 | 0.787 |
| NCI-H441 | 0.418 | 0.373 | 0.516 | 0.343 | – | – | – | – | 0.496 | 0.434 | 0.488 | 0.512 | 0.855 | 0.757 | 0.849 | 0.812 | 1.15 | 0.888 | 0.984 | 1.1 |
